From patent US11208400B2, “Substituted 6-(1H-pyrazol-1-yl)pyrimidin-4-amine derivatives and uses thereof” (Bayer Aktiengesellschaft, priority 2016, dated 2021)
pIC50: −log10 of the molar value.

The compounds below were run against T1, human Npt2a (Homo sapiens, UniProt Q06495) (assay: Npt2a activity cell based assay, membrane potential dye, CHO T-REx hNpt2a cells). Details: doxycycline-induced, depolarization by sodium phosphate influx, average or median values if tested more than once.
T1 construct: expressed in transfected cells
T1 sequence (Q06495 1-639): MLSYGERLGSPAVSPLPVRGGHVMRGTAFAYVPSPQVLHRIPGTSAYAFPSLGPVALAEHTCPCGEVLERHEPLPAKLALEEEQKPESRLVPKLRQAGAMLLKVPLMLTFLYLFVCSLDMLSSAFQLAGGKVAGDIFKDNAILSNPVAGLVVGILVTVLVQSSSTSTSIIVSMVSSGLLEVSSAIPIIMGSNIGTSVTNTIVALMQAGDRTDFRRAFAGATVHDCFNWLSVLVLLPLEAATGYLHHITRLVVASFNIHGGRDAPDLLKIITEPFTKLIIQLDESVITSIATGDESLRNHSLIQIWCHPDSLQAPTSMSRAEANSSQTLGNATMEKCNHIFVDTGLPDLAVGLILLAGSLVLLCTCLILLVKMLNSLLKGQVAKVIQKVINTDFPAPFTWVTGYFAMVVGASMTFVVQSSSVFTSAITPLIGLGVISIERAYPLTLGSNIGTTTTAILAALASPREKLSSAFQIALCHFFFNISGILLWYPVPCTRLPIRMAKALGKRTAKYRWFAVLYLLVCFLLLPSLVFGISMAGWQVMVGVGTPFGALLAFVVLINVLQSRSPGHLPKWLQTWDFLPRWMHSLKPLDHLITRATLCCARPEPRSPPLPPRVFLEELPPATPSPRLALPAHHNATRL
Outline: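 Doxycycline-induced (0.5 μg/mL, 24 h) CHO T-REx cells were loaded with membrane potential dye in sodium-free NHE buffer (pH 7.4) and exposed to compound (50 μM–1 nM, 5 min, room temperature).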
`Cc1nn(-c2cc(Nc3c(C)c(-c4ccc(F)cc4)nn3CC3CC3)ncn2)c(C)c1C(O)(C(F)(F)F)C(F)(F)F` [Example 295, 2-[1-(6-{[1-(cyclopropylmethyl)-3-(4-fluorophenyl)-4-methyl-1H-pyrazol-5-yl]amino}pyrimidin-4-yl)-3,5-dimethyl-1H-pyrazol-4-yl]-1,1,1,3,3,3-hexafluoropropan-2-ol] was tested, and the pIC50 was 7.89. `CCc1c(-c2ccc(F)cc2)nn(C)c1Nc1cc(-n2nc(C)c(Br)c2C)ncn1` [Example 265, 6-(4-bromo-3,5-dimethyl-1H-pyrazol-1-yl)-N-[4-ethyl-3-(4-fluorophenyl)-1-methyl-1H-pyrazol-5-yl]pyrimidin-4-amine] was tested, and the pIC50 was 6.74. For `CCc1c(Nc2cc(-n3nc(C)cc3C)ncn2)nn(S(C)(=O)=O)c1-c1ccc(F)cc1` [Example 114, 6-(3,5-dimethyl-1H-pyrazol-1-yl)-N-[4-ethyl-5-(4-fluorophenyl)-1-(methylsulfonyl)-1H-pyrazol-3-yl]pyrimidin-4-amine], the pIC50 was 6.54. `Cc1cc(C)n(-c2cc(Nc3c(Cl)c(-c4ccc(F)cc4)nn3CC3CC3)ncn2)n1` [Example 187, N-[4-chloro-1-(cyclopropylmethyl)-3-(4-fluorophenyl)-1H-pyrazol-5-yl]-6-(3,5-dimethyl-1H-pyrazol-1-yl)pyrimidin-4-amine] was tested, and the pIC50 was 8.00. For `CCOC(=O)c1c(C)nn(-c2cc(Nc3c(C)c(-c4ccc(C(F)(F)F)cc4)nn3CC3CC3)ncn2)c1C` [Example 285, ethyl 1-[6-({1-(cyclopropylmethyl)-4-methyl-3-[4-(trifluoromethyl)phenyl]-1H-pyrazol-5-yl}amino)pyrimidin-4-yl]-3,5-dimethyl-1H-pyrazole-4-carboxylate], the pIC50 was 6.85. With `Cc1nn(-c2cc(Nc3c(C)nn(-c4ccc(C#N)cc4)c3C)ncn2)c(C)c1CC(C)(C)O` [Example 301, 4-[4-({6-[4-(2-hydroxy-2-methylpropyl)-3,5-dimethyl-1H-pyrazol-1-yl]pyrimidin-4-yl}amino)-3,5-dimethyl-1H-pyrazol-1-yl]benzonitrile] the pIC50 was 7.04. `Cc1nn(-c2cc(Nc3c(C)c(-c4ccc(C#N)cc4)nn3C)ncn2)c(C)c1Cl` [Example 201, 4-(5-{[6-(4-chloro-3,5-dimethyl-1H-pyrazol-1-yl)pyrimidin-4-yl]amino}-1,4-dimethyl-1H-pyrazol-3-yl)benzonitrile] showed a pIC50 of 8.22. For `CCc1c(-c2ccc(F)cc2)nn(CC2CC2)c1Nc1cc(-n2nc(C)c(C(=O)OC(C)(C)C)c2C(F)F)ncn1` [Example 193, tert-butyl 1-(6-{[1-(cyclopropylmethyl)-4-ethyl-3-(4-fluorophenyl)-1H-pyrazol-5-yl]amino}pyrimidin-4-yl)-5-(difluoromethyl)-3-methyl-1H-pyrazole-4-carboxylate], the pIC50 was 7.29. Work on `COc1c(C)nn(-c2cc(Nc3c(C)c(-c4ccc(C#N)cc4)nn3CC3CC3)ncn2)c1C` [Example 464, 4-[1-(cyclopropylmethyl)-5-{[6-(4-methoxy-3,5-dimethyl-1H-pyrazol-1-yl)pyrimidin-4-yl]amino}-4-methyl-1H-pyrazol-3-yl]benzonitrile] yielded a pIC50 of 8.70. `COc1c(Nc2cc(-n3nc(C)cc3C)ncn2)nn(C)c1-c1ccc(C#N)cc1` [Example 443, 4-(3-{[6-(3,5-dimethyl-1H-pyrazol-1-yl)pyrimidin-4-yl]amino}-4-methoxy-1-methyl-1H-pyrazol-5-yl)benzonitrile] showed a pIC50 of 7.96. Compound `Cc1cc(C(F)F)n(-c2cc(Nc3c(C)c(-c4ccc(C(F)(F)F)nc4)nn3C)ncn2)n1` [Example 548, 6-[5-(difluoromethyl)-3-methyl-1H-pyrazol-1-yl]-N-{1,4-dimethyl-3-[6-(trifluoromethyl)pyridin-3-yl]-1H-pyrazol-5-yl}pyrimidin-4-amine] has a pIC50 of 6.10. For `COc1c(C)nn(-c2cc(Nc3nn(C)c(-c4ccc(F)cc4)c3C)ncn2)c1C` [Example 434, N-[5-(4-fluorophenyl)-1,4-dimethyl-1H-pyrazol-3-yl]-6-(4-methoxy-3,5-dimethyl-1H-pyrazol-1-yl)pyrimidin-4-amine], the pIC50 was 8.15. Work on `Cc1nn(-c2cc(Nc3c(C)c(-c4ccc(C#N)cc4)nn3C)ncn2)c(C)c1C(O)C(F)(F)F` (racemic) [Example 387, (±)-4-{5-[(6-{3,5-dimethyl-4-[2,2,2-trifluoro-1-hydroxyethyl]-1H-pyrazol-1-yl}pyrimidin-4-yl)amino]-1,4-dimethyl-1H-pyrazol-3-yl}benzonitrile] yielded a pIC50 of 7.15. In the case of `Cc1nn(-c2cc(Nc3c(C)c(-c4ccc(F)cc4)nn3CC3CC3)ncn2)c(C)c1[S+](C)[O-]` (stereo not drawn) [Example 401, N-[1-(cyclopropylmethyl)-3-(4-fluorophenyl)-4-methyl-1H-pyrazol-5-yl]-6-[3,5-dimethyl-4-(methylsulfinyl)-1H-pyrazol-1-yl]pyrimidin-4-amine], the pIC50 was 5.85. Compound `Cc1nn(-c2cc(Nc3c(C)c(-c4ccc(C#N)cc4)nn3C)ncn2)c2c1C(=O)CC2` [Example 211, 4-(1,4-dimethyl-5-{[6-(3-methyl-4-oxo-5,6-dihydrocyclopenta[c]pyrazol-1(4H)-yl)pyrimidin-4-yl]amino}-1H-pyrazol-3-yl)benzonitrile] has a pIC50 of 6.70. `CC(=O)c1c(C)nn(-c2cc(Nc3nn(C)c(-c4ccc(F)cc4)c3C)ncn2)c1C` [Example 113, 1-[1-(6-{[5-(4-fluorophenyl)-1,4-dimethyl-1H-pyrazol-3-yl]amino}pyrimidin-4-yl)-3,5-dimethyl-1H-pyrazol-4-yl]ethanone] showed a pIC50 of 7.49. Compound `COCCn1nc(-c2ccc(F)cn2)c(C)c1Nc1cc(-n2nc(C)c(C(=O)N(C)C)c2C)ncn1` [Example 557, 1-(6-{[3-(5-fluoropyridin-2-yl)-1-(2-methoxyethyl)-4-methyl-1H-pyrazol-5-yl]amino}pyrimidin-4-yl)-N,N,3,5-tetramethyl-1H-pyrazole-4-carboxamide] has a pIC50 of 6.00. Work on `Cc1nn(-c2cc(Nc3nn(C)c(-c4ccc(F)cc4)c3C)ncn2)c(C)c1C1(O)CC1` [Example 138, 1-[1-(6-{[5-(4-fluorophenyl)-1,4-dimethyl-1H-pyrazol-3-yl]amino}pyrimidin-4-yl)-3,5-dimethyl-1H-pyrazol-4-yl]cyclopropanol] yielded a pIC50 of 6.82. `Cc1cc(C)n(-c2cc(Nc3c(C)c(-c4ccc(C(F)(F)F)cc4)nn3CC3CC3)ncn2)n1` [Example 306, N-{1-(cyclopropylmethyl)-4-methyl-3-[4-(trifluoromethyl)phenyl]-1H-pyrazol-5-yl}-6-(3,5-dimethyl-1H-pyrazol-1-yl)pyrimidin-4-amine] showed a pIC50 of 7.22. `COc1c(C)nn(-c2cc(Nc3c(C)c(C45C6C7C4C4C5C6C74C#N)nn3CC3CC3)ncn2)c1C` (stereo not drawn) [Example 514, 4-[1-(cyclopropylmethyl)-5-{[6-(4-methoxy-3,5-dimethyl-1H-pyrazol-1-yl)pyrimidin-4-yl]amino}-4-methyl-1H-pyrazol-3-yl]cubane-1-carbonitrile] gave a pIC50 of 8.05. With `COC(=O)c1ccc(-c2c(C)c(Nc3cc(-n4nc(C)cc4C)ncn3)nn2C)cc1` [Example 122, methyl 4-(3-{[6-(3,5-dimethyl-1H-pyrazol-1-yl)pyrimidin-4-yl]amino}-1,4-dimethyl-1H-pyrazol-5-yl)benzoate] the pIC50 was 7.60. `Cc1nn(-c2cc(Nc3c(C4CC4)c(-c4ccc(F)cc4)nn3C)ncn2)c(C)c1Cl` [Example 45, 6-(4-chloro-3,5-dimethyl-1H-pyrazol-1-yl)-N-[4-cyclopropyl-3-(4-fluorophenyl)-1-methyl-1H-pyrazol-5-yl]pyrimidin-4-amine] showed a pIC50 of 7.54. `Cc1nn(-c2cc(Nc3c(C)c(-c4ccc(F)cc4)nn3CC3CC3)ncn2)c(C)c1Cl` [Example 175, 6-(4-chloro-3,5-dimethyl-1H-pyrazol-1-yl)-N-[1-(cyclopropylmethyl)-3-(4-fluorophenyl)-4-methyl-1H-pyrazol-5-yl]pyrimidin-4-amine] was tested, and the pIC50 was 7.85. Compound `CCc1c(Nc2cc(-n3nc(C)cc3C)ncn2)n[nH]c1C1CCCCC1` [Example 28, N-(5-cyclohexyl-4-ethyl-1H-pyrazol-3-yl)-6-(3,5-dimethyl-1H-pyrazol-1-yl)pyrimidin-4-amine] has a pIC50 of 6.31. `CC(=O)c1c(C)nn(-c2cc(Nc3c(C)c(-c4ccc(F)cc4)nn3CC3CC3)ncn2)c1C` [Example 502, 1-[1-(6-{[1-(cyclopropylmethyl)-3-(4-fluorophenyl)-4-methyl-1H-pyrazol-5-yl]amino}pyrimidin-4-yl)-3,5-dimethyl-1H-pyrazol-4-yl]ethanone] gave a pIC50 of 8.30. Work on `Cc1nn(-c2cc(Nc3c(C)c(-c4ccc(F)cc4)nn3CC3CC3)ncn2)c(C)c1C(O)C(F)(F)F` (racemic) [Example 374, (±)-1-[1-(6-{[1-(cyclopropylmethyl)-3-(4-fluorophenyl)-4-methyl-1H-pyrazol-5-yl]amino}pyrimidin-4-yl)-3,5-dimethyl-1H-pyrazol-4-yl]-2,2,2-trifluoroethanol] yielded a pIC50 of 7.20. For `CCc1c(Nc2cc(-n3nc(C)c(CC(=O)OC(C)C)c3C)ncn2)nn(C)c1-c1ccc(F)cc1` [Example 440, propan-2-yl [1-(6-{[4-ethyl-5-(4-fluorophenyl)-1-methyl-1H-pyrazol-3-yl]amino}pyrimidin-4-yl)-3,5-dimethyl-1H-pyrazol-4-yl]acetate], the pIC50 was 7.01.
